Test results: patent US20260262643A1, “HERBICIDAL BENZOXAZINES” (FMC CORPORATION, priority 2022, published 2026)

What was measured:
blackgrass [1] = test: Test A preemergence; assay type: in vivo, Alopecurus myosuroides
Method in brief: (§1)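 Plants were grown in loam and sand and treated preemergence or postemergence (one- to two-leaf stage, 2–10 cm) with compound in solvent plus surfactant. Response was scored against untreated controls after 10 greenhouse days, where 0 means no effect and 100 complete control.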

corn [2] = test: Test A preemergence; assay type: in vivo, Zea mays
Method in brief: as §1

foxtail, giant [3] = test: Test A preemergence; assay type: in vivo, Setaria faberi
Method in brief: as §1

goosegrass [4] = test: Test A preemergence; assay type: in vivo, Eleusine indica
Method in brief: as §1

kochia [5] = test: Test A preemergence; assay type: in vivo, Bassia scoparia
Method in brief: as §1

oat, wild [6] = test: Test A preemergence; assay type: in vivo, Avena fatua
Method in brief: as §1

pigweed, palmer [7] = test: Test A preemergence; assay type: in vivo, Amaranthus palmeri
Method in brief: as §1

ragweed [8] = test: Test A preemergence; assay type: in vivo, Ambrosia artemisiifolia
Method in brief: as §1

ryegrass, Italian [9] = test: Test A preemergence; assay type: in vivo, Lolium multiflorum
Method in brief: as §1

soybean [10] = test: Test A preemergence; assay type: in vivo, Glycine max
Method in brief: as §1

wheat [11] = test: Test A preemergence; assay type: in vivo, Triticum aestivum
Method in brief: as §1

blackgrass [12] = test: Test A postemergence; assay type: in vivo, Alopecurus myosuroides
Method in brief: as §1

corn [13] = test: Test A postemergence; assay type: in vivo, Zea mays; conditions: postemergence, 10 days; for Plant response rating, Corn: visual injury, 0 to 100 scale (0 no effect, 100 complete control)
Method in brief: as §1

foxtail, giant [14] = test: Test A postemergence; assay type: in vivo, Setaria faberi; conditions: postemergence, 10 days; for Plant response rating, Foxtail, Giant: visual injury, 0 to 100 scale (0 no effect, 100 complete control)
Method in brief: as §1

goosegrass [15] = test: Test A postemergence; assay type: in vivo, Eleusine indica; conditions: postemergence, 10 days; for Plant response rating, Goosegrass: visual injury, 0 to 100 scale (0 no effect, 100 complete control)
Method in brief: as §1

kochia [16] = test: Test A postemergence; assay type: in vivo, Bassia scoparia; conditions: postemergence, 10 days; for Plant response rating, Kochia: visual injury, 0 to 100 scale (0 no effect, 100 complete control)
Method in brief: as §1

oat, wild [17] = test: Test A postemergence; assay type: in vivo, Avena fatua; conditions: postemergence, 10 days; for Plant response rating, Oat, Wild: 500 g ai/ha, visual injury, 0 to 100 scale (0 no effect, 100 complete control)
Method in brief: as §1

pigweed, palmer [18] = test: Test A postemergence; assay type: in vivo, Amaranthus palmeri; conditions: postemergence, 10 days; for Plant response rating, Pigweed, Palmer: 500 g ai/ha, visual injury, 0 to 100 scale (0 no effect, 100 complete control)
Method in brief: as §1

ragweed [19] = test: Test A postemergence; assay type: in vivo, Ambrosia artemisiifolia; conditions: postemergence, 10 days; for Plant response rating, Ragweed: 500 g ai/ha, visual injury, 0 to 100 scale (0 no effect, 100 complete control)
Method in brief: as §1

ryegrass, Italian [20] = test: Test A postemergence; assay type: in vivo, Lolium multiflorum; conditions: postemergence, 10 days; for Plant response rating, Ryegrass, Italian: 500 g ai/ha, visual injury, 0 to 100 scale (0 no effect, 100 complete control)
Method in brief: as §1

soybean [21] = test: Test A postemergence; assay type: in vivo, Glycine max; conditions: postemergence, 10 days; for Plant response rating, Soybean: 500 g ai/ha, visual injury, 0 to 100 scale (0 no effect, 100 complete control)
Method in brief: as §1

wheat [22] = test: Test A postemergence; assay type: in vivo, Triticum aestivum; conditions: postemergence, 10 days; for Plant response rating, Wheat: 500 g ai/ha, visual injury, 0 to 100 scale (0 no effect, 100 complete control)
Method in brief: as §1

galium = test: Test A postemergence; assay type: in vivo, Galium aparine; conditions: postemergence, 10 days; for Plant response rating, Galium: visual injury, 0 to 100 scale (0 no effect, 100 complete control)
Method in brief: as §1

horseweed = test: Test A postemergence; assay type: in vivo, Erigeron canadensis; conditions: postemergence, 10 days; for Plant response rating, Horseweed: visual injury, 0 to 100 scale (0 no effect, 100 complete control)
Method in brief: as §1

barnyardgrass = test: Test B flooded paddy test; assay type: in vivo, Echinochloa crus-galli; conditions: 250 g ai/ha, Flood, 13 days, 0 to 100 scale (0 no effect, 100 complete control)
Method in brief: (§2)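 Application into standing water (3 cm above soil) at the two-leaf stage; flood depth held constant. Evaluation: day 13, visual comparison with controls, 0 = no injury, 100 = complete control.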

ducksalad = test: Test B flooded paddy test; assay type: in vivo, Heteranthera limosa; conditions: 250 g ai/ha, Flood, 13 days, 0 to 100 scale (0 no effect, 100 complete control)
Method in brief: as §2

rice = test: Test B flooded paddy test; assay type: in vivo, Oryza sativa; conditions: 250 g ai/ha, Flood, 13 days, 0 to 100 scale (0 no effect, 100 complete control)
Method in brief: as §2

sedge, umbrella = test: Test B flooded paddy test; assay type: in vivo, Cyperus difformis; conditions: 250 g ai/ha, Flood, 13 days, 0 to 100 scale (0 no effect, 100 complete control)
Method in brief: as §2

[23] = 125 g ai/ha, visual injury after 10 days, 0 to 100 scale, 0 is no effect, 100 is complete control
[24] = 500 g ai/ha, 0 to 100 scale (0 no effect, 100 complete control), 10 days
[25] = 125 g ai/ha, 0 to 100 scale, 0 no effect, 100 complete control

Compound: CCCc1ncn(-c2cccc(C(=O)N3C[C@H](C)Oc4c(C)cccc43)c2)n1 [Compound 72]
- Plant response rating, Blackgrass (blackgrass [1]; [23]): 40
- Plant response rating, Blackgrass (blackgrass [1]; [24]): 70
- Plant response rating, Corn (corn [2]; [23]): 30
- Plant response rating, Corn (corn [2]; [24]): 50
- Plant response rating, Foxtail, Giant (foxtail, giant [3]; [23]): 100
- Plant response rating, Foxtail, Giant (foxtail, giant [3]; [24]): 100
- Plant response rating, Goosegrass (goosegrass [4]; [23]): 90
- Plant response rating, Goosegrass (goosegrass [4]; [24]): 100
- Plant response rating, Kochia (kochia [5]; [23]): 30
- Plant response rating, Kochia (kochia [5]; [24]): 80
- Plant response rating, Oat, Wild (oat, wild [6]; [23]): 10
- Plant response rating, Oat, Wild (oat, wild [6]; [24]): 90
- Plant response rating, Pigweed, Palmer (pigweed, palmer [7]; [23]): 70
- Plant response rating, Pigweed, Palmer (pigweed, palmer [7]; [24]): 100
- Plant response rating, Ragweed (ragweed [8]; [23]): 0
- Plant response rating, Ragweed (ragweed [8]; [24]): 0
- Plant response rating, Ryegrass, Italian (ryegrass, Italian [9]; [23]): 100
- Plant response rating, Ryegrass, Italian (ryegrass, Italian [9]; [24]): 100
- Plant response rating, Soybean (soybean [10]; [23]): 30
- Plant response rating, Soybean (soybean [10]; [24]): 60
- Plant response rating, Wheat (wheat [11]; [23]): 0
- Plant response rating, Wheat (wheat [11]; [24]): 30
- Plant response rating, Blackgrass (blackgrass [12]; 125 g ai/ha, postemergence, 10 days, visual injury, 0 to 100 scale (0 no effect, 100 complete control)): 0
- Plant response rating, Blackgrass (blackgrass [12]; 500 g ai/ha, Postemergence, 0 to 100 scale): 80
- Plant response rating, Corn (corn [13]; 125 g ai/ha): 30
- Plant response rating, Corn (corn [13]; 500 g ai/ha): 90
- Plant response rating, Foxtail, Giant (foxtail, giant [14]; 125 g ai/ha): 10
- Plant response rating, Foxtail, Giant (foxtail, giant [14]; 500 g ai/ha): 50
- Plant response rating, Goosegrass (goosegrass [15]; 125 g ai/ha): 50
- Plant response rating, Goosegrass (goosegrass [15]; 500 g ai/ha): 90
- Plant response rating, Kochia (kochia [16]; 125 g ai/ha): 70
- Plant response rating, Kochia (kochia [16]; 500 g ai/ha): 90
- Plant response rating, Oat, Wild (oat, wild [17]): 50
- Plant response rating, Pigweed, Palmer (pigweed, palmer [18]): 70
- Plant response rating, Ragweed (ragweed [19]): 50
- Plant response rating, Ryegrass, Italian (ryegrass, Italian [20]): 70
- Plant response rating, Soybean (soybean [21]): 100
- Plant response rating, Wheat (wheat [22]): 30
- Plant response rating, Galium (galium; 125 g ai/ha): 70
- Plant response rating, Galium (galium; 500 g ai/ha): 100
- Plant response rating, Horseweed (horseweed; 125 g ai/ha): 20
- Plant response rating, Horseweed (horseweed; 500 g ai/ha): 50
- Plant response rating, Barnyardgrass (barnyardgrass): 15
- Plant response rating, Ducksalad (ducksalad): 55
- Plant response rating, Rice (rice): 0
- Plant response rating, Sedge, Umbrella (sedge, umbrella): 15

Compound: CCc1ncn(-c2cccc(C(=O)N3C[C@H](C)Oc4c(Cl)cccc43)c2)n1 [Compound 91]
- Plant response rating, Blackgrass (blackgrass [1]; [23]): 80
- Plant response rating, Blackgrass (blackgrass [1]; [24]): 90
- Plant response rating, Corn (corn [2]; [23]): 30
- Plant response rating, Corn (corn [2]; [24]): 60
- Plant response rating, Foxtail, Giant (foxtail, giant [3]; [23]): 90
- Plant response rating, Foxtail, Giant (foxtail, giant [3]; [24]): 100
- Plant response rating, Goosegrass (goosegrass [4]; [23]): 100
- Plant response rating, Goosegrass (goosegrass [4]; [24]): 100
- Plant response rating, Kochia (kochia [5]; [23]): 90
- Plant response rating, Kochia (kochia [5]; [24]): 100
- Plant response rating, Oat, Wild (oat, wild [6]; [23]): 10
- Plant response rating, Oat, Wild (oat, wild [6]; [24]): 90
- Plant response rating, Pigweed, Palmer (pigweed, palmer [7]; [23]): 90
- Plant response rating, Pigweed, Palmer (pigweed, palmer [7]; [24]): 100
- Plant response rating, Ragweed (ragweed [8]; [23]): 0
- Plant response rating, Ragweed (ragweed [8]; [24]): 30
- Plant response rating, Ryegrass, Italian (ryegrass, Italian [9]; [23]): 90
- Plant response rating, Ryegrass, Italian (ryegrass, Italian [9]; [24]): 100
- Plant response rating, Soybean (soybean [10]; [23]): 20
- Plant response rating, Soybean (soybean [10]; [24]): 70
- Plant response rating, Wheat (wheat [11]; [23]): 0
- Plant response rating, Wheat (wheat [11]; [24]): 20
- Blackgrass plant response rating (blackgrass [12]; 125 g ai/ha, postemergence, 10 days, 0 to 100 scale, 0 no effect, 100 complete control): 90
- Plant response rating, Blackgrass (blackgrass [12]; 500 g ai/ha, postemergence, 10 days, visual injury, 0 to 100 scale (0 no effect, 100 complete control)): 100
- Corn plant response rating (corn [13]; [25]): 60
- Plant response rating, Corn (corn [13]; 500 g ai/ha): 80
- Foxtail, Giant plant response rating (foxtail, giant [14]; [25]): 80
- Plant response rating, Foxtail, Giant (foxtail, giant [14]; 500 g ai/ha): 90
- Goosegrass plant response rating (goosegrass [15]; [25]): 80
- Plant response rating, Goosegrass (goosegrass [15]; 500 g ai/ha): 90
- Kochia plant response rating (kochia [16]; [25]): 80
- Plant response rating, Kochia (kochia [16]; 500 g ai/ha): 100
- Oat, Wild plant response rating (oat, wild [17]; [25]): 50
- Plant response rating, Oat, Wild (oat, wild [17]): 90
- Pigweed, Palmer plant response rating (pigweed, palmer [18]; [25]): 70
- Plant response rating, Pigweed, Palmer (pigweed, palmer [18]): 90
- Ragweed plant response rating (ragweed [19]; [25]): 30
- Plant response rating, Ragweed (ragweed [19]): 70
- Ryegrass, Italian plant response rating (ryegrass, Italian [20]; [25]): 80
- Plant response rating, Ryegrass, Italian (ryegrass, Italian [20]): 100
- Soybean plant response rating (soybean [21]; [25]): 100
- Plant response rating, Soybean (soybean [21]): 100
- Wheat plant response rating (wheat [22]; [25]): 30
- Plant response rating, Wheat (wheat [22]): 80
- Galium plant response rating (galium; [25]): 100
- Plant response rating, Galium (galium; 500 g ai/ha): 100
- Horseweed plant response rating (horseweed; [25]): 0
- Plant response rating, Horseweed (horseweed; 500 g ai/ha): 20
- Plant response rating, Barnyardgrass (barnyardgrass): 25
- Plant response rating, Ducksalad (ducksalad): 90
- Plant response rating, Rice (rice): 0
- Plant response rating, Sedge, Umbrella (sedge, umbrella): 35
